Structures are written as SMILES.

The target in data set [1] is T1, Integrin alpha-4/beta-1 (Homo sapiens, UniProt P05556+P13612). As to the kind of experiment: Inhibition of VLA-4 receptor of Jurkat cells in BURJ assay. The data set is classed as cell-based.
Data set [2] can be described thus: Area under plasma concentration curve in rat upon intravenous administration of 5 mg/kg. The data set is classed as ADME, organism-based. Also noted: dose 5 mg/kg, route intravenous.
Data set [3] has as its target T1, Integrin alpha-4/beta-1. As to the kind of experiment: Percentage binding to VLA-4 receptor of Jurkat cells. Format: cell-based.
Data set [4] can be described thus: Maximum concentration in rat plasma upon peroral administration of 5 mg/kg. The data set is classed as ADME, organism-based. Also noted: dose 5 mg/kg, route oral. Conditions: po.
The nature of data set [5]: Half-life in rat upon intravenous administration of 5 mg/kg. Also noted: dose 5 mg/kg, route intravenous. Format: ADME, organism-based. The settings on record: in vivo.
Data set [6] is described as follows: Plasma clearance in rat upon intravenous administration of 5 mg/kg. The data set is classed as ADME, organism-based. Also noted: dose 5 mg/kg, route intravenous.
A short description of data set [7]: Volume of distribution of compound in rat plasma upon intravenous administration of 5 mg/kg. Format: ADME, organism-based. On the set-up: dose 5 mg/kg, route intravenous.
Data set [8] is described as follows: Oral bioavailability in rat upon oral administration of 5 mg/kg. The settings on record: in vivo.

T1 sequence (P05556 whole entry): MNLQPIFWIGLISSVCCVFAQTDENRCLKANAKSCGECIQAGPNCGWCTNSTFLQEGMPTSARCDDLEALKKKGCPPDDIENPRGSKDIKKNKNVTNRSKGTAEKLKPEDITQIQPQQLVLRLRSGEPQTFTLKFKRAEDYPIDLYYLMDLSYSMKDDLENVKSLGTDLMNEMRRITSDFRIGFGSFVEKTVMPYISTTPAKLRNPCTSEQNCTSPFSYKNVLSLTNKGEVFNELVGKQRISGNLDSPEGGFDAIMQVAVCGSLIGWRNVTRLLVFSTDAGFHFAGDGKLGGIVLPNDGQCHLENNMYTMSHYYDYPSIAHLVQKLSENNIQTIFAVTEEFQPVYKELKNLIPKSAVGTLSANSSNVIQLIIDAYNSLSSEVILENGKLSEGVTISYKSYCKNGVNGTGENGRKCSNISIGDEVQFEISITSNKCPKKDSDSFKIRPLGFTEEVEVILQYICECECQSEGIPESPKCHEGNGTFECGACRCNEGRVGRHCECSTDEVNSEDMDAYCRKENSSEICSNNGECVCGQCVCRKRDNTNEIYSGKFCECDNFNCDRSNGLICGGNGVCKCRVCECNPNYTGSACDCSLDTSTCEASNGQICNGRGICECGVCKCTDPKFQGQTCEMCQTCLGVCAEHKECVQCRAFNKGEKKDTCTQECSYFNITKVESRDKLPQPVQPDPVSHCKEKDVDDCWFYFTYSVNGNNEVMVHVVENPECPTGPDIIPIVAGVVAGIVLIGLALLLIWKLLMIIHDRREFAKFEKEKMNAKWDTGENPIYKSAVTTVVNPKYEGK
T1 sequence (P13612 whole entry): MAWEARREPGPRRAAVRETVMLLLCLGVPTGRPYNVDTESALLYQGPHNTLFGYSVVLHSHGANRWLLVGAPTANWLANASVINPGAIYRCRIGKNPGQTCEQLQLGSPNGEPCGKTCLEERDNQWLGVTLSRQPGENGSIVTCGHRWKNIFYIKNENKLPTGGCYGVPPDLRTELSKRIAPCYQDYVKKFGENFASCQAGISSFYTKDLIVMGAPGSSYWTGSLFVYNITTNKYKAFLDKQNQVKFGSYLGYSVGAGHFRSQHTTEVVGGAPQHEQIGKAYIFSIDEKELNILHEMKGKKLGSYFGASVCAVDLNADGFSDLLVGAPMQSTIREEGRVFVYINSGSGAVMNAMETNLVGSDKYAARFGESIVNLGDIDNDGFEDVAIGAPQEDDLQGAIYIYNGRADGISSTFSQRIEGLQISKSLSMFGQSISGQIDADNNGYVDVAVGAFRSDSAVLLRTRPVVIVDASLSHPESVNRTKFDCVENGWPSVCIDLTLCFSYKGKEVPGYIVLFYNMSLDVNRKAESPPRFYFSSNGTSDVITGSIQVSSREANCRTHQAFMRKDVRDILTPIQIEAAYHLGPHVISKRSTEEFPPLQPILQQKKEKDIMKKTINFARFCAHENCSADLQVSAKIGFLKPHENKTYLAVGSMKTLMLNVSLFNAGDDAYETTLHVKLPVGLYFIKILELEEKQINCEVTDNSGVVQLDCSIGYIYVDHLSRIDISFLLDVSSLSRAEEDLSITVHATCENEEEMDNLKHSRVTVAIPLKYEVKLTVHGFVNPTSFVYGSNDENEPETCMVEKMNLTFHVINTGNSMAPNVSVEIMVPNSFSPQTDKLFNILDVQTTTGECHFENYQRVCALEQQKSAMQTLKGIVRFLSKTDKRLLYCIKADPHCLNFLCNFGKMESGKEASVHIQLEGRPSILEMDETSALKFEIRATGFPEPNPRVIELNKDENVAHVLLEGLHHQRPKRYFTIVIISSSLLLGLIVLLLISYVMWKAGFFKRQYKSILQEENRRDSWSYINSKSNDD

As to `COc1cccc(OC)c1-c1ccc(C[C@@H](Cn2oc(=O)[nH]c2=O)NC(=O)[C@@H]2CCCN2S(=O)(=O)c2cc(Cl)cc(Cl)c2)cc1`, 6000 nM corresponded to half-maximal inhibition in data set [1] (IC50).
`O=C(Nc1ccc(C[C@H](NC(=O)[C@@H]2CCCN2S(=O)(=O)c2cc(Cl)cc(Cl)c2)C(=O)O)cc1)c1c(Cl)cncc1Cl`: the AUC in data set [2] was found to be 0.68 µM·h. The compound further came in with a Percent binding to VLA-4 in data set [3] of 66%. In data set [4], this compound displayed a Cmax of 3.14 nM. The compound also had an IC50 in data set [1] of 0.03 nM. This compound had a half-life in data set [5] of 0.72 h. Besides, in data set [6], the clearance was 38.2 mL/min/kg. The compound also displayed a Vd in data set [7] of 0.57 L/kg.
`CCOC(=O)CC(=O)[C@H](Cc1ccc(NC(=O)c2c(Cl)cncc2Cl)cc1)NC(=O)[C@@H]1CCCN1S(=O)(=O)c1cc(Cl)cc(Cl)c1` registered a Percent binding to VLA-4 in data set [3] of 10%. Besides, in data set [1], the IC50 is 13 nM.
Regarding `O=C(Nc1ccc(C[C@H](NC(=O)[C@@H]2CCCN2S(=O)(=O)c2cc(Cl)cc(Cl)c2)c2noc(O)n2)cc1)c1c(Cl)cncc1Cl`, the AUC in data set [2] was 2.01 µM·h. In data set [3], this compound yielded a Percent binding to VLA-4 of 0%. The same compound registered a Cmax in data set [4] of 6.1 nM. Half-maximal inhibition in data set [1] (IC50) was put at 12 nM. The compound also gave a half-life in data set [5] of 2.78 h. In addition, the bioavailability in data set [8] amounted to 0.19%. In data set [6], this compound registered a clearance of 60 mL/min/kg. The compound further displayed a Vd in data set [7] of 2.61 L/kg.
In data set [3], `O=C(Nc1ccc(C[C@H](NC(=O)[C@@H]2CCCN2S(=O)(=O)c2cc(Cl)cc(Cl)c2)c2nnn[nH]2)cc1)c1c(Cl)cncc1Cl` displayed a Percent binding to VLA-4 of 0%. This compound returned an IC50 in data set [1] of 60 nM.
The corresponding values for `O=C(Nc1ccc(C[C@H](NC(=O)[C@@H]2CCCN2S(=O)(=O)c2cc(Cl)cc(Cl)c2)C(=O)NC(=O)C(F)(F)F)cc1)c1c(Cl)cncc1Cl` are 0% and 10 nM.
Taken in the same sequence, the figures for `O=C(Nc1ccc(C[C@H](NC(=O)[C@@H]2CCCN2S(=O)(=O)c2cc(Cl)cc(Cl)c2)c2cc(O)[nH]n2)cc1)c1c(Cl)cncc1Cl` were 6% and 300 nM.
The corresponding values for `O=C(Nc1ccc(C[C@H](NC(=O)[C@@H]2CCCN2S(=O)(=O)c2cc(Cl)cc(Cl)c2)C(=O)NS(=O)(=O)C(F)(F)F)cc1)c1c(Cl)cncc1Cl` are 0% and 11 nM.
`O=C(Nc1ccc(C[C@H](NC(=O)[C@@H]2CCCN2S(=O)(=O)c2cc(Cl)cc(Cl)c2)c2cc(=O)[nH]o2)cc1)c1c(Cl)cncc1Cl` returned an AUC in data set [2] of 3.51 µM·h. Besides, in data set [1], it took 20 nM to reach half-maximal inhibition (IC50). Moreover, in data set [5], the half-life was 2.85 h. The compound further had a clearance in data set [6] of 37.6 mL/min/kg. In data set [7], this compound yielded a Vd of 1.25 L/kg.
Consider `O=C(Nc1ccc(C[C@H](NC(=O)[C@@H]2CCCN2S(=O)(=O)c2cc(Cl)cc(Cl)c2)c2cc(O)no2)cc1)c1c(Cl)cncc1Cl`, for which, in data set [3], the Percent binding to VLA-4 was determined as 8%.

The IC50 is the concentration that gives 50% inhibition. A word on the AUC: it is concentration integrated over time. The term Cmax denotes the maximum level reached in the sampled fluid or tissue. For orientation: half-life means the time in which the quantity being followed falls by half. A high value points to slow decline. In general, clearance refers to a measure of how efficiently the substance is removed, as volume per time. Low values mean a low capacity for elimination, high ones a high capacity for elimination. What is called Vd is a proportionality between amount in the body and measured concentration, not a real space. A low value points to confinement near the circulation. For orientation: bioavailability means dose-corrected exposure relative to a reference, in per cent. Low values mean little systemic uptake, high ones much systemic uptake.

(Values after ChEMBL document CHEMBL1142815, “Influence of acid surrogates toward potency of VLA-4 antagonist” (Bioorg Med Chem Lett, 2005).)
